According to patent US6375979B2 (Somerset Pharmaceuticals, Inc., priority 1995, dated 2002):
Several values for one entry are separate records, joined by “and”; a condition that tells them apart may be missing. Equal entries are not always repeated.

Columns and labels:
[1] = molecular target: T1, dopamine re-uptake system (Rattus norvegicus, UniProt P23977); assay: Inhibition of dopamine re-uptake in rat neostriatal synaptosome preparation; type: biochemical
T1 construct: (synaptosome preparation) was obtained form fresh rat neostriatal brain tissue; from tissue; host or cells: rat neostriatum, synaptosome preparation
T1 sequence (P23977 whole entry): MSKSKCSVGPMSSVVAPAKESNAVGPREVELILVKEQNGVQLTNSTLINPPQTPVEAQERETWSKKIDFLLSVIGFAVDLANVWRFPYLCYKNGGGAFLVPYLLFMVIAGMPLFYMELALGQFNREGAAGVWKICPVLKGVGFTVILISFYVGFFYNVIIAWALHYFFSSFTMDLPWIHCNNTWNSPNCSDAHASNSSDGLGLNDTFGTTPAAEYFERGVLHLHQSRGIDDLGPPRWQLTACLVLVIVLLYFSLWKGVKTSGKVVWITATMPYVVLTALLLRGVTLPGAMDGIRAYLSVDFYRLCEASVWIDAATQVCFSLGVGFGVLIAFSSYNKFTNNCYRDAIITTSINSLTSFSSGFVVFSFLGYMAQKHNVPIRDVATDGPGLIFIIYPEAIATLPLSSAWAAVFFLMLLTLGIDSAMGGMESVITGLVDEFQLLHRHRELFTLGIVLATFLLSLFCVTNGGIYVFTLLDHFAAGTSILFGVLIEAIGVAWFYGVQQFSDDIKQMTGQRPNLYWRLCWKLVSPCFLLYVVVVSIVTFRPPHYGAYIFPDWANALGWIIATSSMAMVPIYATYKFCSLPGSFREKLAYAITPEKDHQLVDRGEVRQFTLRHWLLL
Protocol: An in vitro nerve terminal preparation (synaptosome preparation) was prepared using fresh rat neostriatal tissue.
FIG. 19: Determination of IC50 Values for Inhibition of Dopamine Re-Uptake.
An in vitro nerve-terminal preparation (synaptosome preparation) was obtained form fresh rat neostriatal brain tissue. Transport by dopamine nerve-terminals was estimated by measuring the uptake of tritiated dopamine.

[2] = test system: rat spleens; assay: Histological immunofluorescence of spleen innervation in old rats; type: in vivo; settings: ip daily 60 days
Protocol: (§1) Rats were administered saline or test agent ip, daily for 60 days. They were then maintained for an additional “wash out” period of 10 days during which time no treatment was given. At the end of this time, animals were sacrificed and their spleens were removed. The spleen cells were then assayed for a variety of factors which are indicative of immune system function. Specifically, standard tests were employed to determine the following:
Histological immunofluorescence studies show a dramatic loss of innervation in rat spleens with age.

[3] = test system: cultured rat mesencephalic cells; assay: Medium change (glutamate receptor dependent) model of cell death: [3H]-dopamine uptake; settings: for Dopamine uptake, % control, Mean / Dopamine uptake, % control, individual cultures / Dopamine uptake, counts/min, Mean / Dopamine uptake, counts/min, individual cultures / more axonal growth and terminal axonal survival compared to untreated control cells / 3H-Dopamine uptake as a percentage + SEM: medium change model; for neuron protection by measurement of dopamine uptake (FIG. 15): glutamate receptor dependent model; for more axonal growth and terminal axonal survival compared to untreated control cells / 3H-Dopamine uptake as a percentage + SEM: 10 μM; for 3H-Dopamine uptake as a percentage + SEM: control = 100
Protocol: Preparations are then added to 10 ml Ecoscint (National Diagnostics) and counted in a scintillation spectrometer.
In these experiments, cells were plated and allowed to stabilize for several days.

[4] = test system: interleukin-2 production; assay: Concanavalin A-induced interleukin-2 production by spleen cells of treated old rats; type: in vivo, rat; settings: for IL-2 % control / IL-2 U/ml mean: ip daily 60 days
Protocol: The present experiments utilized a rat model to examine the ability of R(−)DMS and S(+)DMS to restore immunological function. Rats were divided into the following experimental groups:
as §1
2) in vitro concanavalin A-induced production of interleukin-2;

[5] = test system: wobbler mouse; assay: Wobbler mouse model of motor neuron disease; type: in vivo; settings: 0.1 mg/kg daily intra-peritoneal for 30 days; range in parentheses
Protocol: The ability of the enantiomers of DMS to prevent neurological deterioration was examined by administering the agents to the wobbler mouse, an animal model of motor neuron diseases, particularly amyotrophic lateral sclerosis (ALS).
A 0.1 mg/kg dose of R(−)DMS, S(+)DMS or placebo was administered to wobbler mice by daily intra-peritoneal injection for a period of 30 days in a randomized, double-blind study. At the end of this time mice were examined for grip strength, running time, resting locomotive activity and graded for semi-quantitative paw posture abnormalities, and semi-quantitative walking abnormalities. The investigators who prepared and administered the test drugs to the animals were different than those who analyzed behavioral changes.
Assays and grading were performed essentially as described in Mitsumoto et al., Ann. Neurol. 36:142-148 (1994). Grip strength of the front paws of a mouse was determined by allowing the animal to grasp a wire with both paws. […] The reading on the dynamometer at the point of release is taken as a measure of grip strength.
Running time is defined as the shortest time necessary to traverse a specified distance, e.g. 2.5 feet and the best time of several trials is recorded. […]
Locomotive activity is determined by transferring animals to an examination area in which the floor is covered with a square grid. […]

[6] = test system: γ-interferon production; assay: γ-interferon production by concanavalin A-stimulated spleen cells of treated old rats; type: in vivo, rat; settings: for IFN-γ % control / IFN-γ U/ml mean: old rats, ip daily 60 days, 1.0 mg/kg (for DMS enantiomers)
Protocol: Rats were divided into the following experimental groups:
as §1
1) in vitro production of γ-interferon by concanavalin A-stimulated spleen cells;

[7] = test system: cultured rat mesencephalic cells exposed to NMDA; assay: NMDA model of cell death: [3H]-dopamine uptake; settings: 100 μM NMDA exposure
[8] = 1.0 mg/kg (for DMS enantiomers)

Compound: desmethylselegiline [R(−)DMS]
- 3H-Dopamine uptake, % Reduction x ± SEM ([1]; 1 μM): 10.7 ± 2.8%
- 3H-Dopamine uptake, % Reduction x ± SEM ([1]; 10 μM): 20.1 ± 3.1%
- 3H-Dopamine uptake, % Reduction x ± SEM ([1]; 100 μM): 11.5 ± 1.0%
- 3H-Dopamine uptake, % Reduction x ± SEM ([1]; 100 μM (last row of each agent)): 51.3 ± 2.6%
- innervation in the spleens, histological examination [2]: significant increase in innervation
- Dopamine uptake, % control, Mean ([3]; 0.5 μM): 141.9%
- Dopamine uptake, % control, individual cultures ([3]; 0.5 μM): 142.3% and 152.4% and 142.6% and 130.4%
- Dopamine uptake, counts/min, Mean ([3]; 0.5 μM): 29800.75 counts/min
- Dopamine uptake, counts/min, individual cultures ([3]; 0.5 μM): 29885 counts/min and 32002 counts/min and 29934 counts/min and 27382 counts/min
- neuron protection by measurement of dopamine uptake (FIG. 15) ([3]; 5 μM): neuron protection
- Dopamine uptake, % control, Mean ([3]; 5.0 μM): 153.7%
- Dopamine uptake, % control, individual cultures ([3]; 5.0 μM): 155.2% and 142.1% and 173.2% and 144.5%
- Dopamine uptake, counts/min, Mean ([3]; 5.0 μM): 32280 counts/min
- Dopamine uptake, counts/min, individual cultures ([3]; 5.0 μM): 32577 counts/min and 29831 counts/min and 36370 counts/min and 30342 counts/min
- more axonal growth and terminal axonal survival compared to untreated control cells [3]: 40%
- 3H-Dopamine uptake as a percentage + SEM [3]: 140.82 ± 26.20%
- neuron protection by measurement of dopamine uptake (FIG. 15) ([3]; 50 μM): neuron protection
- Dopamine uptake, % control, Mean ([3]; 50 μM): 185.5%
- Dopamine uptake, % control, individual cultures ([3]; 50 μM): 178.3% and 186.7% and 186.3% and 190.6%
- Dopamine uptake, counts/min, Mean ([3]; 50 μM): 38944.75 counts/min
- Dopamine uptake, counts/min, individual cultures ([3]; 50 μM): 37440 counts/min and 39200 counts/min and 39126 counts/min and 40013 counts/min
- IL-2 production after treatment [4]: not enhanced
- IL-2 % control [4, 8]: 223%
- IL-2 U/ml mean [4, 8]: 43.7 U/ml
- IL-2 U/ml mean ([4]; […] (for R(−)DMS by group order)): 64.54 U/ml
- IL-2 U/ml mean ([4]; dose not printed in row, by group order […]): 55.17 U/ml
- Mean Grip Strength (gm) [5]: 20 (0-63) gm
- IFN-γ % control [6]: 777%
- IFN-γ U/ml mean [6]: 2728 U/ml
- Dopamine uptake, % control, Mean ([7]; 0.5 μM): 138.6%
- Dopamine uptake, % control, individual cultures ([7]; 0.5 μM): 167.3% and 138.9% and 132.9% and 133.6% and 120.4%
- Dopamine uptake, counts/min, Mean ([7]; 0.5 μM): 9365.2 counts/min
- Dopamine uptake, counts/min, individual cultures ([7]; 0.5 μM): 11304 counts/min and 9385 counts/min and 8976 counts/min and 9028 counts/min and 8133 counts/min
- Dopamine uptake, % control, Mean ([7]; 5.0 μM): 177.6%
- Dopamine uptake, % control, individual cultures ([7]; 5.0 μM): 163.0% and 199.9% and 169.8% and 204.0% and 151.4%
- Dopamine uptake, counts/min, Mean ([7]; 5.0 μM): 12001.8 counts/min
- Dopamine uptake, counts/min, individual cultures ([7]; 5.0 μM): 11014 counts/min and 13509 counts/min and 11471 counts/min and 13786 counts/min and 10229 counts/min
- Dopamine uptake, % control, Mean ([7]; 50 μM): 304.3%
- Dopamine uptake, % control, individual cultures ([7]; 50 μM): 262.1% and 341.8% and 318.7% and 259.3% and 339.9%
- Dopamine uptake, counts/min, Mean ([7]; 50 μM): 20562.2 counts/min
- Dopamine uptake, counts/min, individual cultures ([7]; 50 μM): 17708 counts/min and 23090 counts/min and 21530 counts/min and 17520 counts/min and 22963 counts/min

Compound: C#CCN[C@@H](C)Cc1ccccc1 (single isomer, unassigned) [S(+)DMS, ent-desmethylselegiline]
- times more potent than either selegiline or R(−)DMS at inhibiting dopamine re-uptake [1]: 4-5 times
- 3H-Dopamine uptake, % Reduction x ± SEM ([1]; 1 μM): 24.1 ± 11.7%
- 3H-Dopamine uptake, % Reduction x ± SEM ([1]; 10 μM): 47.0 ± 3.1%
- 3H-Dopamine uptake, % Reduction x ± SEM ([1]; 100 μM): 15.3 ± 7.7%
- innervation in the spleens, histological examination [2]: did not show any effect
- more axonal growth and terminal axonal survival compared to untreated control cells [3]: 134%
- 3H-Dopamine uptake as a percentage + SEM [3]: 234 ± 38.36%
- IL-2 production after treatment [4]: not enhanced
- IL-2 % control [4, 8]: 291%
- IL-2 U/ml mean [4, 8]: 57.12 U/ml
- Mean Grip Strength (gm) [5]: 14 (7-20) gm
- γ-interferon levels in old rats after administration ([6]; most dramatic increases at 1.0 mg/kg body weight): restoration of γ-interferon levels
- IFN-γ % control [6]: 261%
- IFN-γ U/ml mean [6]: 918 U/ml
- Dopamine uptake, % control, Mean ([7]; 0.5 μM): 187.4%
- Dopamine uptake, % control, individual cultures ([7]; 0.5 μM): 164.2% and 179.0% and 181.6% and 242.7% and 169.2%
- Dopamine uptake, counts/min, Mean ([7]; 0.5 μM): 12658.2 counts/min
- Dopamine uptake, counts/min, individual cultures ([7]; 0.5 μM): 11096 counts/min and 12092 counts/min and 12269 counts/min and 16399 counts/min and 11435 counts/min
- Dopamine uptake, % control, Mean ([7]; 5.0 μM): 246.9%
- Dopamine uptake, % control, individual cultures ([7]; 5.0 μM): 229.9% and 300.6% and 245.4% and 235.8% and 222.8%
- Dopamine uptake, counts/min, Mean ([7]; 5.0 μM): 16681.6 counts/min
- Dopamine uptake, counts/min, individual cultures ([7]; 5.0 μM): 15535 counts/min and 20313 counts/min and 16579 counts/min and 15929 counts/min and 15052 counts/min
- Dopamine uptake, % control, Mean ([7]; 50 μM): 448.9%
- Dopamine uptake, % control, individual cultures ([7]; 50 μM): 371.5% and 384.0% and 422.5% and 577.9% and 488.8%
- Dopamine uptake, counts/min, Mean ([7]; 50 μM): 30331.2 counts/min
- Dopamine uptake, counts/min, individual cultures ([7]; 50 μM): 25101 counts/min and 25944 counts/min and 28545 counts/min and 39042 counts/min and 33024 counts/min
